Data on 27 compounds can be found in patent US20100004128A1, “HERBICIDAL ISOXAZOLINE COMPOUNDS” (SYNGENTA CROP PROTECTION, INC., priority 2006, published 2010).

This test has as its system Monocotyledonous and dicotyledonous test plants. The test is described as follows: Herbicidal action, application pre-emergence. The format is in vivo. The arrangement: key: 10=total damage to plant; 0=no damage to plant. To be noted: spray solution 1000 mg/l, scale 0-10; for Herbicidal action (damage score) AGSTE: Agrostis tenius; for Herbicidal action (damage score) AMARE: Amaranthus retroflexus; for Herbicidal action (damage score) DIGSA: Digitaria sanguinalis; for Herbicidal action (damage score) POATR: Poa trivialis; for Herbicidal action (damage score) SETFA: Setaria faberi; for Herbicidal action (damage score) SETIT: Setaria italica. How it is done:
Monocotyledonous and dicotyledonous test plants were sown in sterilised standard soil in seed trays each having 96 cells. After one day (pre-emergence) or after 8 to 9 days cultivation (post-emergence) under controlled conditions in a climatic chamber (cultivation at 23/17° C., day/night; 13 hours light; 50-60% humidity; after application at 24/19° C., day/night), the plants were treated with an aqueous spray solution of 1000 mg/l of the active ingredient used (incl. 10% DMSO as solvent). The plants were grown on in the climatic chamber until the test was evaluated (10=total damage to plant, 0=no damage to plant) after 9 or 13 days.

Consider `Cc1nn(C(F)F)nc1C(F)[S+]([O-])C1=NOC(C)(C)C1` (racemic) [Compound No. 1.21], for which the “Herbicidal action (damage score) AGSTE” value amounted to 10, the “Herbicidal action (damage score) AMARE” value turned out to be 10, the “Herbicidal action (damage score) DIGSA” value is 10 and the “Herbicidal action (damage score) POATR” value is 10. Further, the “Herbicidal action (damage score) SETFA” value is 10.
Regarding `Cn1nc(C(F)(F)F)c(C(F)(F)S(=O)(=O)C2=NOC(C)(C)C2)n1` [1.09], the “Herbicidal action (damage score) AGSTE” value is recorded as 10, the “Herbicidal action (damage score) AMARE” value is given as 10, the “Herbicidal action (damage score) DIGSA” value was determined as 10 and the “Herbicidal action (damage score) POATR” value worked out at 10. Further, the “Herbicidal action (damage score) SETIT” value amounted to 10.
Take `CCn1nc(C(F)(F)F)c(C(F)(F)S(=O)(=O)C2=NOC(C)(C)C2)n1` [1.15]: the “Herbicidal action (damage score) AGSTE” value worked out at 10, the “Herbicidal action (damage score) AMARE” value was 10, the “Herbicidal action (damage score) DIGSA” value is listed as 10 and the “Herbicidal action (damage score) POATR” value came out at 10. Further, the “Herbicidal action (damage score) SETFA” value is reported as 10.
For the compound `CC(C)n1nc(C(F)(F)F)c(C(F)(F)S(=O)(=O)C2=NOC(C)(C)C2)n1` [1.17], the “Herbicidal action (damage score) AGSTE” value is on record as 10, the “Herbicidal action (damage score) AMARE” value was 10, the “Herbicidal action (damage score) DIGSA” value came out at 9 and the “Herbicidal action (damage score) POATR” value stood at 10. For the same compound, the “Herbicidal action (damage score) SETFA” value is 10.
As for `Cc1nn(C(F)F)nc1C(F)(F)S(=O)(=O)C1=NOC(C)(C)C1` [1.20], the “Herbicidal action (damage score) AGSTE” value is 10, the “Herbicidal action (damage score) AMARE” value is reported as 10, the “Herbicidal action (damage score) DIGSA” value amounted to 10 and the “Herbicidal action (damage score) POATR” value was 10. Also, the “Herbicidal action (damage score) SETFA” value was 9.
Turning to `COCCn1nc(C(F)(F)F)c(C(F)(F)S(=O)(=O)C2=NOC(C)(C)C2)n1` [1.23], the “Herbicidal action (damage score) AGSTE” value stood at 10, the “Herbicidal action (damage score) AMARE” value is reported as 10, the “Herbicidal action (damage score) DIGSA” value is given as 10 and the “Herbicidal action (damage score) POATR” value is 10. Further, the “Herbicidal action (damage score) SETFA” value came out at 10.
As for `CCc1nn(C)nc1C(F)(F)S(=O)(=O)C1=NOC(C)(C)C1` [1.26], the “Herbicidal action (damage score) AGSTE” value worked out at 10, the “Herbicidal action (damage score) AMARE” value is on record as 10, the “Herbicidal action (damage score) DIGSA” value worked out at 10 and the “Herbicidal action (damage score) POATR” value turned out to be 10. Further, the “Herbicidal action (damage score) SETFA” value is listed as 10.
Consider `CC1(C)CC(S(=O)(=O)C(F)(F)c2nn(C3CCCC3)nc2C(F)(F)F)=NO1` [1.29], for which the “Herbicidal action (damage score) AGSTE” value was 10, the “Herbicidal action (damage score) AMARE” value worked out at 8, the “Herbicidal action (damage score) DIGSA” value is reported as 9 and the “Herbicidal action (damage score) POATR” value is listed as 6. For the same compound, the “Herbicidal action (damage score) SETFA” value is recorded as 9.
As for `C=CCn1nc(C(F)(F)F)c(C(F)(F)S(=O)(=O)C2=NOC(C)(C)C2)n1` [1.32], the “Herbicidal action (damage score) AGSTE” value came out at 10, the “Herbicidal action (damage score) AMARE” value came to 10, the “Herbicidal action (damage score) DIGSA” value worked out at 10 and the “Herbicidal action (damage score) POATR” value is recorded as 10. For the same compound, the “Herbicidal action (damage score) SETFA” value worked out at 10.
As for `Cn1ncc(C(F)(F)S(=O)(=O)C2=NOC(C)(C)C2)n1` [1.35], the “Herbicidal action (damage score) AGSTE” value is reported as 10, the “Herbicidal action (damage score) AMARE” value was determined as 10, the “Herbicidal action (damage score) DIGSA” value was 9 and the “Herbicidal action (damage score) POATR” value was determined as 10. In addition, the “Herbicidal action (damage score) SETFA” value turned out to be 9.
`Cn1ncc(C(F)(F)[S+]([O-])C2=NOC(C)(C)C2)n1` (stereo not drawn) [1.36]: the “Herbicidal action (damage score) AGSTE” value was determined as 10, the “Herbicidal action (damage score) AMARE” value is reported as 9, the “Herbicidal action (damage score) DIGSA” value stood at 10 and the “Herbicidal action (damage score) POATR” value came out at 10. The “Herbicidal action (damage score) SETFA” value is 9.
With `CCn1ncc(C(F)S(=O)(=O)C2=NOC(C)(C)C2)n1` (stereo not drawn) [1.37], the “Herbicidal action (damage score) AGSTE” value turned out to be 10, the “Herbicidal action (damage score) AMARE” value is reported as 10, the “Herbicidal action (damage score) DIGSA” value was 9 and the “Herbicidal action (damage score) POATR” value is 10. For the same compound, the “Herbicidal action (damage score) SETFA” value was found to be 9.
Take `CCn1ncc(C(F)(F)S(=O)(=O)C2=NOC(C)(C)C2)n1` [1.38]: the “Herbicidal action (damage score) AGSTE” value came out at 10, the “Herbicidal action (damage score) AMARE” value is given as 10, the “Herbicidal action (damage score) DIGSA” value is recorded as 9 and the “Herbicidal action (damage score) POATR” value was 10. Moreover, the “Herbicidal action (damage score) SETFA” value was 9.
For the compound `CCn1ncc(C(F)(F)[S+]([O-])C2=NOC(C)(C)C2)n1` (stereo not drawn) [1.40], the “Herbicidal action (damage score) AGSTE” value is 10, the “Herbicidal action (damage score) AMARE” value is listed as 10, the “Herbicidal action (damage score) DIGSA” value stood at 9 and the “Herbicidal action (damage score) POATR” value is 10. Further, the “Herbicidal action (damage score) SETFA” value was determined as 9.
As to `Cc1nn(C(C)C)nc1C(F)(F)S(=O)(=O)C1=NOC(C)(C)C1` [1.41], the “Herbicidal action (damage score) AGSTE” value came out at 10, the “Herbicidal action (damage score) AMARE” value worked out at 10, the “Herbicidal action (damage score) DIGSA” value was found to be 10 and the “Herbicidal action (damage score) POATR” value stood at 10. Moreover, the “Herbicidal action (damage score) SETFA” value is 9.
Regarding `COc1nn(C)nc1C(F)(F)S(=O)(=O)C1=NOC(C)(C)C1` [1.43], the “Herbicidal action (damage score) AGSTE” value stood at 10, the “Herbicidal action (damage score) AMARE” value was 10, the “Herbicidal action (damage score) DIGSA” value is 10 and the “Herbicidal action (damage score) POATR” value is reported as 0. The “Herbicidal action (damage score) SETFA” value is on record as 10.
In the case of `COc1nn(C)nc1C(F)(F)[S+]([O-])C1=NOC(C)(C)C1` (stereo not drawn) [1.44], the “Herbicidal action (damage score) AGSTE” value came out at 10, the “Herbicidal action (damage score) AMARE” value stood at 10, the “Herbicidal action (damage score) DIGSA” value amounted to 10 and the “Herbicidal action (damage score) POATR” value stood at 0. The “Herbicidal action (damage score) SETFA” value turned out to be 9.
Take `Cn1nc(Br)c(C(F)S(=O)(=O)C2=NOC(C)(C)C2)n1` (stereo not drawn) [1.45]: the “Herbicidal action (damage score) AGSTE” value is 10, the “Herbicidal action (damage score) AMARE” value was found to be 9, the “Herbicidal action (damage score) DIGSA” value is listed as 10 and the “Herbicidal action (damage score) POATR” value came to 10. Moreover, the “Herbicidal action (damage score) SETFA” value is given as 9.
For `Cn1nc(Br)c(C(F)(F)S(=O)(=O)C2=NOC(C)(C)C2)n1` [1.46], the “Herbicidal action (damage score) AGSTE” value came to 10, the “Herbicidal action (damage score) AMARE” value came out at 10, the “Herbicidal action (damage score) DIGSA” value was 10 and the “Herbicidal action (damage score) POATR” value amounted to 10. In addition, the “Herbicidal action (damage score) SETFA” value was found to be 9.
With `Cn1nc(Br)c(C(F)(F)[S+]([O-])C2=NOC(C)(C)C2)n1` (stereo not drawn) [1.47], the “Herbicidal action (damage score) AGSTE” value amounted to 10, the “Herbicidal action (damage score) AMARE” value stood at 10, the “Herbicidal action (damage score) DIGSA” value is given as 9 and the “Herbicidal action (damage score) POATR” value was 10. For the same compound, the “Herbicidal action (damage score) SETFA” value came out at 9.
As to `CC1(C)CC(S(=O)(=O)C(F)(F)c2nn(CC3CCC3)nc2C(F)(F)F)=NO1` [1.48], the “Herbicidal action (damage score) AGSTE” value worked out at 10, the “Herbicidal action (damage score) AMARE” value is recorded as 9, the “Herbicidal action (damage score) DIGSA” value worked out at 10 and the “Herbicidal action (damage score) POATR” value is listed as 6. Moreover, the “Herbicidal action (damage score) SETFA” value came out at 9.
As for `CC1(C)CC([S+]([O-])C(F)(F)c2nn(CC3CCC3)nc2C(F)(F)F)=NO1` (stereo not drawn) [1.49], the “Herbicidal action (damage score) AGSTE” value amounted to 10, the “Herbicidal action (damage score) AMARE” value came out at 9, the “Herbicidal action (damage score) DIGSA” value is on record as 10 and the “Herbicidal action (damage score) POATR” value turned out to be 10. The “Herbicidal action (damage score) SETFA” value was 9.
`CC1(C)CC(S(=O)(=O)C(F)(F)c2cn(C(C)(C)C)nn2)=NO1` [2.02]: the “Herbicidal action (damage score) AGSTE” value was 9, the “Herbicidal action (damage score) AMARE” value is 3, the “Herbicidal action (damage score) DIGSA” value is given as 9 and the “Herbicidal action (damage score) POATR” value is listed as 9. In addition, the “Herbicidal action (damage score) SETFA” value was determined as 8.
On to `CC1(C)CC([S+]([O-])C(F)(F)c2cn(C(C)(C)C)nn2)=NO1` (stereo not drawn) [2.04], for which the “Herbicidal action (damage score) AGSTE” value is on record as 6, the “Herbicidal action (damage score) AMARE” value is reported as 0, the “Herbicidal action (damage score) DIGSA” value was found to be 2 and the “Herbicidal action (damage score) POATR” value was 0. Moreover, the “Herbicidal action (damage score) SETFA” value worked out at 6.
Take `Cn1nnc(C(F)(F)F)c1C(F)(F)S(=O)(=O)C1=NOC(C)(C)C1` [3.02]: the “Herbicidal action (damage score) AGSTE” value is reported as 10, the “Herbicidal action (damage score) AMARE” value stood at 10, the “Herbicidal action (damage score) DIGSA” value came out at 10 and the “Herbicidal action (damage score) POATR” value was found to be 10. The “Herbicidal action (damage score) SETIT” value stood at 10.
Take `Cn1nnc(Br)c1C(F)(F)[S+]([O-])C1=NOC(C)(C)C1` (stereo not drawn) [3.06]: the “Herbicidal action (damage score) AGSTE” value came to 10, the “Herbicidal action (damage score) AMARE” value was 10, the “Herbicidal action (damage score) DIGSA” value was 9 and the “Herbicidal action (damage score) POATR” value is 10. Also, the “Herbicidal action (damage score) SETFA” value amounted to 9.
With `Cc1nn(C)nc1C(F)S(=O)(=O)C1=NOC(C)(C)C1` (stereo not drawn) [Compound No. 1.04, 4-[(5,5-dimethyl-4,5-dihydro-isoxazole-3-sulfonyl)-fluoro-methyl]-2,5-dimethyl-2H-[1,2,3]triazole], the “Herbicidal action (damage score) AGSTE” value was found to be 10, the “Herbicidal action (damage score) AMARE” value turned out to be 9, the “Herbicidal action (damage score) DIGSA” value turned out to be 10 and the “Herbicidal action (damage score) POATR” value is recorded as 10. Moreover, the “Herbicidal action (damage score) SETIT” value is 9.
